Here are results for three compounds from patent US11779590B2, “AMP-activated protein kinase activating compounds and uses thereof” (Skylark Bioscience LLC, priority 2020, dated 2023).

For data set [1] the following is noted: dosed orally; cited from earlier work.
The next data set has as its system HEK293 cells. Description: HEK293 cytotoxicity assay (CC50, CellTiterGlo). Format: cell-based, human. The source says: Some exemplary assays and examples for assessing therapeutic efficacy, e.g., anticancer effects, of exemplary compounds of the invention are described herein or well known in the art. HEK293 is a human kidney cell line, and efficacy on HEK293 is considered to be predictive of usefulness for therapeutic treatment.
HEK293 cells were obtained from American Type Culture Collection (ATCC) (Rockville Maryland). Cells were maintained in Dulbecco's modified Eagle's medium (DMEM) (Invitrogen, Carlsbad, CA) with 10% fetal bovine serum (FBS), 10 mM HEPES and 1 mM sodium pyruvate. Cells were grown at 37° C. in a humidified incubator with a gas phase of 5% C02. Cells were grown for 24 hours in a Tripleflask (NUNC) to ˜95% confluence and then resuspended for dispensing at 125,000 cells/mL of DMEM, 10% FBS, 10 mM Hepes and 1 mM sodium pyruvate.
HEK293 cells were seeded in 96 well microtiter plates at 10000 cells/well. After 24 hours of incubation an equal volume of fresh media containing test compounds at given concentrations was added. Plates were then incubated and cells were allowed to proliferate for 48 hours at 37° C., 95% humidity, and 5% C02. […] A solution of Promega CellTiterGlo (100 microliters) was added by Thermo Combi and the plates were allowed to sit for 10 minutes before reading on a Perkin-Elmer EnVision with US LUM settings for 0.1 sec per well. […]
(In general: In ATP-based viability assays light output follows the ATP content of the culture.)

Take `NC(=O)c1ncn([C@@H]2O[C@H](CO)[C@@H](O)[C@H]2O)c1N` [AICAR, 5-amino-1-D-ribofuranosyl-1H-imidazole-4-carboxamide]: the bioavailability entry in data set [1] is “very low”.
Take `COP(=O)(OC)OC[C@H]1O[C@@H](n2cnc(C(N)=O)c2N)[C@H](O)[C@@H]1O` [SB00024]: the “activity on HEK293 cells (CC50 assay)” value with HEK293 cells (at 500 uM) was “inactive”.
As for `NC(=O)c1ncn([C@@H]2O[C@H](COP(=O)(O)Oc3ccc([N+](=O)[O-])cc3)[C@@H](O)[C@H]2O)c1N` [SB00039], the “potency relative to AICAR on HEK293 cells” value with HEK293 cells (ratio of potency (CC50) versus AICAR) is reported as “roughly 100 times”.
